≈ marks a conversion by molar mass, not a printed value. Entries after “also recorded” stand apart in the source; their conditions may differ. Read-outs that look alike come from different tables or passages of the source.
Assays:
[1] = Competitive ripening (relative thermodynamic stability of non-solvated forms); details: for Nature (thermodynamic stability of crystal form): Table 6 summary
[2] = D9 solubility in the liquors at isolation temperature; type: physicochemical; details: organic solvent or mixture, thermodynamic from solid
Protocol: At the end of each experiment, suspensions were equilibrated at the isolation temperature (25 or 5° C.) for at least 18 hours and the solids and liquors separated by centrifugation at the isolation temperature. The Exo/D9/D8 ratio (Exo-D9-THC-naphthoylester impurity/D9-THC-naphthoylester/D8-THC-naphthoylester) was determined in both the isolated solids and the liquors, from which the % Exo-depletion in the isolated solids was calculated. Several solids were also isolated at elevated temperatures to assess the impact of the isolation temperature on Exo-impurity depletion.
In addition, the solubility of D9 in the liquors was determined in most of the explored solvents and used to estimate the yield.

[3] = Experiment No. 10, n-BuOH, 25 °C
[4] = Experiment No. 14, Toluene/EtOH (1:9), 5 °C
[5] = Experiment No. 16, n-BuOH, 5 °C

Compound: CCCCCc1cc(OC(=O)c2ccc3ccccc3c2)c2c(c1)OC(C)(C)[C@@H]1CCC(C)=C[C@@H]21 [Form H, (6aR,10aR)-6a,7,8,10a-tetrahydro-6,6,9-trimethyl-3-pentyl-6H-dibenzo[b,d]pyran-1-yl ester]
- Relative thermodynamic stability ([1]; at 5° C., ripening incomplete within 29 days): likely the most-stable form
- Relative thermodynamic stability ([1]; between 25-60° C., non-solvate forming solvents): most stable non-solvated crystal form; also recorded: thermodynamically most-stable form
- solubility ([2]; crystallisation liquors over suspended solid, 5 °C, batch 5, Toluene/MeOH (3:7), seed G, heat T 25, isolation T 5, 10.0 mL/g, SP 11): 71.4 mg/mL (≈ 152 mM)
- solubility ([2]; crystallisation liquors over suspended solid, 25 °C, batch 5, EtOAC/EtOH (2:8), seed H, heat T 50, isolation T 25, 8.0 mL/g, SP 17, Exp 47): 36.2 mg/mL (≈ 77.2 mM)
- solubility ([2]; crystallisation liquors over suspended solid, 25 °C, batch 5, Toluene/EtOH (1:9), seed G/H, heat T 55, isolation T 25, 9.9 mL/g, SP 16, Exp 46): 11.1 mg/mL (≈ 23.7 mM)
- solubility ([2]; crystallisation liquors over suspended solid, 25 °C, batch 5, Toluene/EtOH (1:9), seed H, heat T 40, isolation T 25, 10.0 mL/g, SP 19, Exp 54): 19.6 mg/mL (≈ 41.8 mM)
- solubility ([2]; crystallisation liquors over suspended solid, 25 °C, batch 5, Toluene/EtOH (2:8), seed H, heat T 25, isolation T 25, 5.0 mL/g, SP 18, Exp 52): 36.2 mg/mL (≈ 77.2 mM)
- solubility ([2]; crystallisation liquors over suspended solid, 25 °C, batch 5, Toluene/MeOH (1:9), seed H, heat T 50, isolation T 25, 15.0 mL/g, SP 17, Exp 48): 6.8 mg/mL (≈ 14.5 mM)
- solubility ([2]; crystallisation liquors over suspended solid, 25 °C, batch 5, Toluene/MeOH (2:8), seed H, heat T 50, isolation T 25, 6.0 mL/g, SP 17, Exp 41): 25.1 mg/mL (≈ 53.6 mM)
- solubility ([2]; crystallisation liquors over suspended solid, 25 °C, batch 5, Toluene/MeOH (3:7), seed G, heat T 25, isolation T 25, 5.5 mL/g, SP 7): 69.9 mg/mL (≈ 149 mM)
- solubility ([2]; crystallisation liquors over suspended solid, 25 °C, batch 5, Toluene/MeOH (3:7), seed G, heat T 25, isolation T 25, 8.0 mL/g, SP 7): 80.2 mg/mL (≈ 171 mM)
- solubility ([2]; crystallisation liquors over suspended solid, 25 °C, batch 5, Toluene/MeOH (3:7), seed G, heat T 25, isolation T 25, 10.0 mL/g, SP 7): 64.7 mg/mL (≈ 138 mM)
- solubility ([2]; liquors of the equilibrated crystallisation suspension, 5 °C, Toluene/MeOH (3:7), isolation 5 °C, SP 11, 10.0 mL/g, read-out: D9 Solubility at Isolation T): 71.4 mg/mL (≈ 152 mM)
- solubility ([2]; liquors of the equilibrated crystallisation suspension, 25 °C, EtOAC/EtOH (2:8), isolation 25 °C, SP 17, 8.0 mL/g, read-out: D9 Solubility at Isolation T): 36.2 mg/mL (≈ 77.2 mM)
- solubility ([2]; liquors of the equilibrated crystallisation suspension, 25 °C, EtOAc/MeOH (1:3), isolation 25 °C, SP 21, 10.0 mL/g, read-out: D9 Solubility at Isolation T): 8.9 mg/mL (≈ 19 mM)
- solubility ([2]; liquors of the equilibrated crystallisation suspension, 25 °C, Toluene/EtOH (1:9), isolation 25 °C, SP 16, 9.9 mL/g, read-out: D9 Solubility at Isolation T): 11.1 mg/mL (≈ 23.7 mM)
- solubility ([2]; liquors of the equilibrated crystallisation suspension, 25 °C, Toluene/EtOH (1:9), isolation 25 °C, SP 19, 10.0 mL/g, read-out: D9 Solubility at Isolation T): 19.6 mg/mL (≈ 41.8 mM)
- solubility ([2]; liquors of the equilibrated crystallisation suspension, 25 °C, Toluene/EtOH (2:8), isolation 25 °C, SP 18, 5.0 mL/g, read-out: D9 Solubility at Isolation T): 36.2 mg/mL (≈ 77.2 mM)
- solubility ([2]; liquors of the equilibrated crystallisation suspension, 25 °C, Toluene/MeOH (1:9), isolation 25 °C, SP 17, 15.0 mL/g, read-out: D9 Solubility at Isolation T): 6.8 mg/mL (≈ 14.5 mM)
- solubility ([2]; liquors of the equilibrated crystallisation suspension, 25 °C, Toluene/MeOH (2:8), isolation 25 °C, SP 17, 6.0 mL/g, read-out: D9 Solubility at Isolation T): 25.1 mg/mL (≈ 53.6 mM)
- solubility ([2]; liquors of the equilibrated crystallisation suspension, 25 °C, Toluene/MeOH (3:7), isolation 25 °C, SP 7, 5.5 mL/g, read-out: D9 Solubility at Isolation T): 69.9 mg/mL (≈ 149 mM)
- solubility ([2]; liquors of the equilibrated crystallisation suspension, 25 °C, Toluene/MeOH (3:7), isolation 25 °C, SP 7, 8.0 mL/g, read-out: D9 Solubility at Isolation T): 80.2 mg/mL (≈ 171 mM)
- solubility ([2]; liquors of the equilibrated crystallisation suspension, 25 °C, Toluene/MeOH (3:7), isolation 25 °C, SP 7, 10.0 mL/g, read-out: D9 Solubility at Isolation T): 64.7 mg/mL (≈ 138 mM)
- solubility ([2]; liquors of the equilibrated crystallisation suspension, 25 °C, batch 5, EtOAc/MeOH (1:3), seed H, heat T 55, isolation T 25, 10.0 mL/g, SP 21, Exp 34): 8.9 mg/mL (≈ 19 mM)

Compound: CCCCCc1cc(OC(=O)c2ccc3ccccc3c2)c2c(c1)OC(C)(C)[C@@H]1CCC(C)=C[C@@H]21 [G, H]
- Form Isolated 1-3 d ([1]; Experiment No. 5, Toluene/EtOH (1:9), 50 °C): H/G(tr)
- Form Isolated 1-3 d ([1]; Experiment No. 6, n-BuOH, 50 °C): H/G(tr)
- Form Isolated 1-3 d ([1]; Experiment No. 11, Toluene/EtOH (1:9), 25 °C): G/H
- Form Isolated 1-3 d ([1]; Experiment No. 12, Heptane, 25 °C): H/G

Compound: CCCCCc1cc(OC(=O)c2ccc3ccccc3c2)c2c(c1)OC(C)(C)[C@@H]1CCC(C)=C[C@@H]21 [A, B, C, E, G]
- Form Isolated 1-3 d ([1]; Experiment No. 7, Acetone/MeOH (1:3), 25 °C): E/G
- Form Isolated 1-3 d ([1]; Experiment No. 8, Toluene/EtOH (1:9), 25 °C): G/E
- Form Isolated 1-3 d [1, 3]: B/G
- Form Isolated 4-9 d [1, 3]: B/G
- Form Isolated 4-9 d [1, 4]: B/G
- Form Isolated 26-29 d [1, 4]: G/B(tr)
- Form Isolated 4-9 d [1, 5]: B/G
- Form Isolated 26-29 d [1, 5]: B/G

Compound: CCCCCc1cc(OC(=O)c2ccc3ccccc3c2)c2c(c1)OC(C)(C)[C@@H]1CCC(C)=C[C@@H]21 [B, G, H]
- Form Isolated 12 d ([1]; Experiment No. 17, Toluene/EtOH (1:9), 5 °C): G/H
- Form Isolated 12 d ([1]; Experiment No. 18, Heptane, 5 °C): H/B(tr)
- Form Isolated 12 d ([1]; Experiment No. 19, n-BuOH, 5 °C): B/H

Compound: CCCCCc1cc(OC(=O)c2ccc3ccccc3c2)c2c(c1)OC(C)(C)[C@@H]1CCC(C)=C[C@@H]21 [E, G]
- Form Isolated 4-9 d ([1]; Experiment No. 15, Heptane, 5 °C): G/B

Compound: CCCCCc1cc(OC(=O)c2ccc3ccccc3c2)c2c(c1)OC(C)(C)[C@@H]1CCC(C)=C[C@@H]21 [Form G, (6aR,10aR)-6a,7,8,10a-tetrahydro-6,6,9-trimethyl-3-pentyl-6H-dibenzo[b,d]pyran-1-yl ester]
- Nature (thermodynamic stability of crystal form) [1]: Metastable
- solubility ([2]; crystallisation liquors over suspended solid, 25 °C, batch 5, Anisole/MeOH (1:9), seed E/G, heat T 50, isolation T 25, 9.4 mL/g, SP 3): 8.1 mg/mL (≈ 17.3 mM)
- solubility ([2]; crystallisation liquors over suspended solid, 25 °C, batch 5, Cyclohexanone/MeOH (1:3), seed G, heat T 40, isolation T 25, 9.4 mL/g, SP 3): 34.4 mg/mL (≈ 73.4 mM)
- solubility ([2]; crystallisation liquors over suspended solid, 25 °C, batch 5, EtOAc/EtOH (1:9), seed G/H, heat T 55, isolation T 25, 5.0 mL/g, SP 15, Exp 53): 17.8 mg/mL (≈ 38 mM)
- solubility ([2]; crystallisation liquors over suspended solid, 25 °C, batch 5, EtOAc/MeOH (1:2), seed H, heat T 55, isolation T 25, 8.0 mL/g, SP 21, Exp 50): 18.5 mg/mL (≈ 39.5 mM)
- solubility ([2]; crystallisation liquors over suspended solid, 25 °C, batch 5, EtOAc/MeOH (1:3), seed G/H, heat T 55, isolation T 25, 10.0 mL/g, SP 15, Exp 55): 9.7 mg/mL (≈ 20.7 mM)
- solubility ([2]; crystallisation liquors over suspended solid, 25 °C, batch 5, MEK/MeOH (3:7), seed G/H, heat T 55, isolation T 25, 5.0 mL/g, SP 15, Exp 51): 23.2 mg/mL (≈ 49.5 mM)
- solubility ([2]; crystallisation liquors over suspended solid, 25 °C, batch 5, Toluene/MeOH (1:9), seed E/G, heat T 50, isolation T 25, 9.6 mL/g, SP 3): 6.5 mg/mL (≈ 13.9 mM)
- solubility ([2]; crystallisation liquors over suspended solid, 25 °C, batch 5, Toluene/MeOH (5:95), seed H, heat T 50, isolation T 25, 10.0 mL/g, SP 20, Exp 44): 3.4 mg/mL (≈ 7.26 mM)
- solubility ([2]; crystallisation liquors over suspended solid, 25 °C, batch 5, p-Xylene/MeOH (1:9), seed E/G, heat T 50, isolation T 25, 19.5 mL/g, SP 3): 7.5 mg/mL (≈ 16 mM)
- solubility ([2]; liquors of the equilibrated crystallisation suspension, 25 °C, batch 5, Cyclohexanone/MeOH (1:3), seed G, heat T 25, isolation T 25, 30.0 mL/g, SP 7): 29.3 mg/mL (≈ 62.5 mM)

Compound: CCCCCc1cc(OC(=O)c2ccc3ccccc3c2)c2c(c1)OC(C)(C)[C@@H]1CCC(C)=C[C@@H]21 [Form A, (6aR,10aR)-6a,7,8,10a-tetrahydro-6,6,9-trimethyl-3-pentyl-6H-dibenzo[b,d]pyran-1-yl ester]
- Nature (thermodynamic stability of crystal form) [1]: Metastable

Compound: CCCCCc1cc(OC(=O)c2ccc3ccccc3c2)c2c(c1)OC(C)(C)[C@@H]1CCC(C)=C[C@@H]21 [Form C, (6aR,10aR)-6a,7,8,10a-tetrahydro-6,6,9-trimethyl-3-pentyl-6H-dibenzo[b,d]pyran-1-yl ester]
- Nature (thermodynamic stability of crystal form) [1]: Metastable
- solubility ([2]; crystallisation liquors over suspended solid, 5 °C, batch 5, MeCN/MIBK (8:2), seed D, heat T 50, isolation T 5, SP 6, 20.0 mL/g): 21.6 mg/mL (≈ 46.1 mM)
- solubility ([2]; crystallisation liquors over suspended solid, 5 °C, batch 5, MeCN/MeOH (9:1), seed D/G, heat T 50, isolation T 5, SP 6, 30.0 mL/g): 8.4 mg/mL (≈ 17.9 mM)
- solubility ([2]; crystallisation liquors over suspended solid, 25 °C, batch 5, MeCN, seed D, heat T 50, isolation T 25, SP 5, 30.0 mL/g): 8.6 mg/mL (≈ 18.4 mM)
- solubility ([2]; crystallisation liquors over suspended solid, 25 °C, batch 5, MeCN/MIBK (8:2), seed D, heat T 50, isolation T 25, SP 2, 3.2 mL/g): 25.5 mg/mL (≈ 54.4 mM)
- solubility ([2]; crystallisation liquors over suspended solid, 25 °C, batch 5, MeCN/MIBK (8:2), seed D, heat T 50, isolation T 25, SP 5, 20.0 mL/g): 22.3 mg/mL (≈ 47.6 mM)
- solubility ([2]; crystallisation liquors over suspended solid, 25 °C, batch 5, MeCN/MeOH (9:1), seed D/G, heat T 50, isolation T 25, SP 5, 30.0 mL/g): 8.7 mg/mL (≈ 18.6 mM)
